Literature values in patent US10232044B2, “Controlled release aural pressure modulator compositions and methods for the treatment of OTIC disorders” (Otonomy, Inc., priority 2008, dated 2019).
Read-outs that look alike come from different tables or passages of the source.

Columns and labels:
8-isoprostaglandin F2α = conditions: sensorineural hearing loss animal models, noise exposure
[1] = molecular target: constitutively activated D136A mutant VP2 receptor (Homo sapiens, UniProt P30518, D136A)
intra-ocular pressure = conditions: glaucoma patients

Row | Structure (SMILES) | intra-ocular pressure (intra-ocular pressure) | other results
1 | O=C(O)CCC/C=C\C[C@@H]1[C@H](CNNC(=O)Nc2ccccc2)[C@H]2CC[C@@H]1O2 [SQ29548] | – | noise-induced changes in cochlear blood flow and vascular conductance (8-isoprostaglandin F2α): prevents these noise-induced changes
2 | CCOc1ccc2c(c1)C1(CCC(OCCN3CCOCC3)CC1)C(=O)N2S(=O)(=O)c1ccc(C(=O)NC(C)(C)C)cc1OC (stereo not drawn) [SR-1211463] | – | behaviour at D136A mutant VP2 receptor [1]: inverse agonist
3 | NC(=O)CC[C@@H]1NC(=O)[C@H](Cc2ccccc2)NC(=O)[C@H](Cc2ccc(O)cc2)NC(=O)[C@@H](N)CSSC[C@@H](C(=O)N2CCC[C@H]2C(=O)N[C@@H](CCCN=C(N)N)C(=O)NCC(N)=O)NC(=O)[C@H](CC(N)=O)NC1=O [VP] | – | endolymphatic hydrops (endolymphatic hydrops; chronic administration, guinea pigs): induces endolymphatic hydrops; endolymphatic hydrops (endolymphatic hydrops; systemic administration, guinea pig): development of endolymphatic hydrops
4 | CCNC(=O)CCC/C=C\C[C@@H]1[C@@H](/C=C/[C@@H](O)CCc2ccccc2)[C@H](O)C[C@@H]1O [bimtoprost] | reduce intra-ocular pressure | –
5 | CC(C)OC(=O)CCC/C=C\C[C@@H]1[C@@H](CC[C@@H](O)CCc2ccccc2)[C@H](O)C[C@@H]1O [latanoprost] | reduce intra-ocular pressure | –
6 | CCCCC[C@H](O)/C=C/[C@@H]1[C@@H](C/C=C\CCCC(=O)O)[C@@H](O)C[C@H]1O [minprostin F2 alpha] | reduce intra-ocular pressure | –
7 | CC(C)OC(=O)CCC/C=C\C[C@@H]1[C@@H](/C=C/[C@@H](O)COc2cccc(C(F)(F)F)c2)[C@H](O)C[C@@H]1O [travoprost] | reduce intra-ocular pressure | –
8 | CCCCCCCC(=O)CC[C@@H]1[C@@H](C/C=C\CCCC(=O)O)[C@@H](O)C[C@H]1O [unoprostone] | reduce intra-ocular pressure | –
